Molecular target: T1, human mGlu 5a receptor (Homo sapiens, UniProt P41594)
T1 construct: expressed in transfected cells; host or cells: EBNA cells (transient transfection); cell membrane homogenates
Test: [3H]MPEP competition binding on membranes of EBNA cells transiently transfected with human mGlu 5a receptor
Settings: displacement of [3H]MPEP (2 nM), 1 h at 4° C.
Method: The pharmacological activity of the compounds was tested using the following method: For binding experiments, cDNA encoding human mGlu 5a receptor was transiently transfected into EBNA cells using a procedure described by Schlaeger and Christensen [Cytotechnology 15:1-13 (1998)]. Cell membrane homogenates were stored at −80° C. until the day of assay where upon they were thawed and resuspended and polytronized in 15 mM Tris-HCl, 120 mM NaCl, 100 mM KCl, 25 mM CaCl2, 25 mM MgCl2 binding buffer at pH 7.4 to a final assay concentration of 20 μg protein/well.
Saturation isotherms were determined by addition of twelve [^3H]MPEP concentrations (0.04-100 nM) to these membranes (in a total volume of 200 μl) for 1 h at 4° C. Competition experiments were performed with a fixed concentration of [^3H]MPEP (2 nM), and IC50 values of test compounds evaluated using […] (0.3-10,000 nM). Incubations were performed for 1 h at 4° C.
At the end of the incubation, membranes were filtered onto unifilter (96-well white microplate with bonded GF/C filter preincubated 1 h in 0.1% PEI in wash buffer, Packard BioScience, Meriden, Conn.) with a Filtermate 96 harvester (Packard BioScience) and washed 3 times with cold 50 mM Tris-HCl, pH 7.4 buffer. Nonspecific binding was measured in the presence of 10 μM MPEP. The radioactivity on the filter was counted (3 min) on a Packard Top-count microplate scintillation counter with quenching correction after addition of 45 μl of microscint 40 (Canberra Packard S.A., Zürich, Switzerland) and shaking for 20 min.
The inhibition (antagonists) curves were fitted with a four parameter logistic equation giving IC50, and Hill coefficient using iterative non linear curve fitting software (Xcel fit).
For binding experiments the Ki values of the compounds tested are given. The Ki value is defined by the following formula: Ki=IC50/[1+L/Kd] in which the IC50 values are these concentrations of the compounds tested which cause 50% inhibition of the competing radioligand ([^3H]MPEP). L is the concentration of radioligand used in the binding experiment and the Kd value of the radioligand is empirically determined for each batch of membranes prepared.

T1 sequence (P41594 21-1180 isoform P41594-2 limits assumed): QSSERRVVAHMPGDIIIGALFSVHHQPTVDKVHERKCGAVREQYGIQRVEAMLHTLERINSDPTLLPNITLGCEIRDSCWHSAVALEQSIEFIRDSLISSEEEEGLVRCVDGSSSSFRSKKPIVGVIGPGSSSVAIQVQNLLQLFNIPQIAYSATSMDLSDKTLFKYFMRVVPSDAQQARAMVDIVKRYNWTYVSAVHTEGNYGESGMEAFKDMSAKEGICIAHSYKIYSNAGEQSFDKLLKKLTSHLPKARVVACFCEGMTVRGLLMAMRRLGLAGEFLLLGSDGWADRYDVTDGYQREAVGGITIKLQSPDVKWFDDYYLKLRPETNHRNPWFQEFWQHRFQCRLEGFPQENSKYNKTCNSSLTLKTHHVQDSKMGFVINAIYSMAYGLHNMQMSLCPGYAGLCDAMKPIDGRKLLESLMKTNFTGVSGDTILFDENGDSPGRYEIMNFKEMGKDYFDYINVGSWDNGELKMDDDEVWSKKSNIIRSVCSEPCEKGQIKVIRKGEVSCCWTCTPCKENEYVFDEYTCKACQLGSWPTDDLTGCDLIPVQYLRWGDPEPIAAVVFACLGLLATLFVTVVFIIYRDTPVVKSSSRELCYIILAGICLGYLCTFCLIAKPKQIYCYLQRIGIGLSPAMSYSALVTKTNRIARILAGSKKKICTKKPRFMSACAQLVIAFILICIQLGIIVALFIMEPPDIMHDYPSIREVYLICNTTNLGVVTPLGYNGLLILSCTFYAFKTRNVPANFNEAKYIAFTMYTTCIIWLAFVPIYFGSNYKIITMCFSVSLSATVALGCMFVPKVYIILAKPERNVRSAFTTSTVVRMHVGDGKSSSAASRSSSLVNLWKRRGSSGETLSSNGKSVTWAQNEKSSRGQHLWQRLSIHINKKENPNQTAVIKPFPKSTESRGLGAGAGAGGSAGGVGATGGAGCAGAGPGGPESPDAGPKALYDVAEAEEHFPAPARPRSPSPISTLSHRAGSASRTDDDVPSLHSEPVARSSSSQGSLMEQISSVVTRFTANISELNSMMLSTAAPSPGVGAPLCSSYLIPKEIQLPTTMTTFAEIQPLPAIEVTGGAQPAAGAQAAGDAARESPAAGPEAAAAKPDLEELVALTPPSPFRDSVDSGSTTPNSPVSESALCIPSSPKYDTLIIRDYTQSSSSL

SMILES | Ki
O=C(Nc1cccc(Cl)c1)c1nccnc1Nc1cccnc1 [Example 1, 3-(Pyridin-3-ylamino)-pyrazine-2-carboxylic acid (3-chloro-phenyl)-amide] | 54 nM
O=C(Nc1cccc(Cl)c1)c1nccnc1Nc1ccccc1 [Example 2, 3-Phenylamino-pyrazine-2-carboxylic acid (3-chloro-phenyl)-amide] | 95 nM
Cn1ccc(NC(=O)c2nccnc2Nc2cncc(F)c2)n1 [Example 3, 3-(5-Fluoro-pyridin-3-ylamino)-pyrazine-2-carboxylic acid (1-methyl-1H-pyrazol-3-yl)-amide] | 71 nM
Cc1cc(NC(=O)c2nccnc2Nc2ccccc2)ccn1 [Example 4, 3-Phenylamino-pyrazine-2-carboxylic acid (2-methyl-pyridin-4-yl)-amide] | 761 nM
Cc1cc(NC(=O)c2nc(C)cnc2Nc2cncc(Cl)c2)ccn1 [Example 5, 3-(5-Chloro-pyridin-3-ylamino)-6-methyl-pyrazine-2-carboxylic acid (2-methyl-pyridin-4-yl)-amide] | 1630 nM
